Assay results published in patent US9902696B2, “1,4-substituted piperidine derivatives” (Cephalon, Inc., priority 2015, dated 2018).
Counter-ions that a name gives are not always drawn.

Target: T1, recombinant human baculovirus-expressed GST-tagged FASN (Homo sapiens, UniProt P49327)
T1 construct: GST
Test: FASN enzyme activity assay, fluorescence-based detection of CoA with CPM
Type: biochemical
Conditions: 5 nM FASN, 150 μM NADPH, 10 μM acetyl-CoA, 25 μM malonyl-CoA, 90 minutes incubation; read-out: IC50 data for Additional Compounds of Formulae I-V(a): Activity
Summary of the method: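 Human GST-tagged FASN, baculovirus-expressed (5 nM), in 50 mM HEPES pH 7.5 with 150 μM NADPH, 10 μM acetyl-CoA, 25 μM malonyl-CoA, 0.5% DMSO; malonyl-CoA-started, 90 min. Released CoA detected with CPM (50 μM dilution), 30 min, fluorescence ex 390/em 530. IC50 from variable-slope sigmoidal fit of % inhibition versus log concentration.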

T1 sequence (P49327 whole entry): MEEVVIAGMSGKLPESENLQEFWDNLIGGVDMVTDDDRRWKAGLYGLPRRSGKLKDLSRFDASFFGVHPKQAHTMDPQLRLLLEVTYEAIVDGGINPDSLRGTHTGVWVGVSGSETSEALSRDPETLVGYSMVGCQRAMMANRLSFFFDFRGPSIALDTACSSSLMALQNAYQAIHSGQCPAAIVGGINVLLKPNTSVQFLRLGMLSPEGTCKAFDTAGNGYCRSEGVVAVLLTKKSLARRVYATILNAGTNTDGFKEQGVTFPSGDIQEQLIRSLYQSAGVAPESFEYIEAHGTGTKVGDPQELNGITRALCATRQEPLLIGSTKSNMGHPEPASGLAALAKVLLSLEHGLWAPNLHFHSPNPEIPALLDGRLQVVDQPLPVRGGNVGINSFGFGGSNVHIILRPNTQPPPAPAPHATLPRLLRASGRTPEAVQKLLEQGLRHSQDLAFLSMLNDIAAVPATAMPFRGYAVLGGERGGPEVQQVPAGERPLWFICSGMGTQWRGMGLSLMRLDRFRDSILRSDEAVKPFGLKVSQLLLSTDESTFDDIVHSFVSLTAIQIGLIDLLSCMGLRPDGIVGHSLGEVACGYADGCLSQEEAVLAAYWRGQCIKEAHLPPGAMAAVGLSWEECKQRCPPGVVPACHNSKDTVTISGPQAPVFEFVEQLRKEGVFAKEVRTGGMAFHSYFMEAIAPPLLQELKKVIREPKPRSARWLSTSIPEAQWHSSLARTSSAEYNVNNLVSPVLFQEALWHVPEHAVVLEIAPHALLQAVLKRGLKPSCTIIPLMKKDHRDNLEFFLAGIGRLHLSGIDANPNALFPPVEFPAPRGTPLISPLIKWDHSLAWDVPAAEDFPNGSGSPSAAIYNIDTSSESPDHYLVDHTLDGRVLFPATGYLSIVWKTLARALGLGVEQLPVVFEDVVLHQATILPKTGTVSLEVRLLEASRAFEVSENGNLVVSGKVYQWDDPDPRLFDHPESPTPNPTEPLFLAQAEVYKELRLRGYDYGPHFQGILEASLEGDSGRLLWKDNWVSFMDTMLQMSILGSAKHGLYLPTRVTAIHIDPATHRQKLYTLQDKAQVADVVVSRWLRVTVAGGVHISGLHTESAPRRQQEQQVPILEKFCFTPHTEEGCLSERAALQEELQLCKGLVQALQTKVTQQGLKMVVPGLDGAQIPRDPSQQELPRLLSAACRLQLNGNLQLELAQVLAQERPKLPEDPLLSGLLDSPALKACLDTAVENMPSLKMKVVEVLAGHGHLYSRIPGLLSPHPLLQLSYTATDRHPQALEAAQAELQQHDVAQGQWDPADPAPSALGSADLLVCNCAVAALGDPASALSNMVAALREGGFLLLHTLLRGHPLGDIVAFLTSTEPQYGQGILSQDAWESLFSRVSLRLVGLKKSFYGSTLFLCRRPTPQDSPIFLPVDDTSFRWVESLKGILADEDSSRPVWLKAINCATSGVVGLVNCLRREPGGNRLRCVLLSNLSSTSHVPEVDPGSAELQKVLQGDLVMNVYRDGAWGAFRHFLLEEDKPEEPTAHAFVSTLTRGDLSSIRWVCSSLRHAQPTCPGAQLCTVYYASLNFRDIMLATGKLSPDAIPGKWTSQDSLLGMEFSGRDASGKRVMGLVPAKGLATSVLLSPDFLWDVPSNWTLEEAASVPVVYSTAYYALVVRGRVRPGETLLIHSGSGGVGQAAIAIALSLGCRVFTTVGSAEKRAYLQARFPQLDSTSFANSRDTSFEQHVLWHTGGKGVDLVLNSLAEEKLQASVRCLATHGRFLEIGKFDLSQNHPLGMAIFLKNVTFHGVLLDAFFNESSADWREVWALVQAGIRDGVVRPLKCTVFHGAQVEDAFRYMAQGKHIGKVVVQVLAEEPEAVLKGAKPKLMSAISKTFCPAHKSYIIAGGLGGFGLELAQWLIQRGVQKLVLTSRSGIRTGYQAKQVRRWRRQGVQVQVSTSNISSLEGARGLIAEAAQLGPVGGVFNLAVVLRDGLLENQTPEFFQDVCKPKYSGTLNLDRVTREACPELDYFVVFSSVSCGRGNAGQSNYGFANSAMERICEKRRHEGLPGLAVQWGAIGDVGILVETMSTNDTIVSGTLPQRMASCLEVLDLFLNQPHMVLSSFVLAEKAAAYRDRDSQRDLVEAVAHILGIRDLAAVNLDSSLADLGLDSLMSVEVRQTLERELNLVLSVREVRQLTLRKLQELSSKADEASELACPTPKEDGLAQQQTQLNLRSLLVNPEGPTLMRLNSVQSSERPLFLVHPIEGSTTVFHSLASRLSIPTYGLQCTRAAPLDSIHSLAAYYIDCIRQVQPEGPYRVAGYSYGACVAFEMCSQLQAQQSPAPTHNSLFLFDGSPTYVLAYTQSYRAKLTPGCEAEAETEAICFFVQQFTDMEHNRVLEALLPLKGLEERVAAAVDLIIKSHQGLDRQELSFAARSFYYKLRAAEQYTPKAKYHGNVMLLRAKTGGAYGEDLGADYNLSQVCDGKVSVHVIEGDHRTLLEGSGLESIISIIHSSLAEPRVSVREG

Structure (SMILES)	IC50
Cc1c(-c2ccc(OC3CCN(C(=O)NCCN4CCOCC4)CC3)cc2)ccc2cccnc12 [Example 531, 4-[4-(8-Methyl-7-quinolyl)phenoxy]-N-(2-morpholinoethyl)piperidine-1-carboxamide HCl]	1000 to 10000 nM
CNC1(C(=O)N2CCC(Oc3ccc(-c4ccc5cccnc5c4C)cc3)CC2)CC1 [Example 622, [1-(Methylamino)cyclopropyl]-[4-[4-(8-methyl-7-quinolyl)phenoxy]-1-piperidyl]methanone]	1000 to 10000 nM
Cc1c(-c2ccc(OC3CCN(C(=O)OCCN4CCCC4)CC3)cc2)ccc2cccnc12 [Example 547, 2-Pyrrolidin-1-ylethyl 4-[4-(8-methyl-7-quinolyl)phenoxy]piperidine-1-carboxylate, 2HCl]	1000 to 10000 nM

Next, values leading:

IC50	Structure (SMILES)
1000 to 10000 nM	Cc1c(-c2ccc(OC3CCN(C(=O)N(C)C)CC3)cc2)ccc2nccn12 [Example 599, N,N-Dimethyl-4-[4-(5-methylimidazo[1,2-a]pyridin-6-yl)phenoxy]piperidine-1-carboxamide]
1 to 99 nM	Cc1c(-c2ccc(OC3CCN(C(=O)CO)CC3)cc2)ccc2cccnc12 [Example 626, 2-Hydroxy-1-[4-[4-(8-methyl-7-quinolyl)phenoxy]-1-piperidyl]ethanone]
1000 to 10000 nM	CCNC(=O)N1CCC(Oc2ccc(-c3ccc4ccnn4c3C)cc2)CC1 [Example 536, N-Ethyl-4-[4-(7-methylpyrazolo[1,5-a]pyridin-6-yl)phenoxy]piperidine-1-carboxamide]

Same assay, conditions: 5 nM FASN, 150 μM NADPH, 10 μM acetyl-CoA, 25 μM malonyl-CoA, 90 minutes incubation; read-out: IC50 data for Compounds of Formulae I-V/V(a): Activity

Structure (SMILES)	IC50
O=C(C1CC1)N1CCC(Oc2ccc(-c3ccc4scnc4c3)cc2)CC1 [Example 268, [4-(4-Benzothiazol-5-yl-phenoxy)-piperidin-1-yl]-cyclopropylmethanone, TFA salt]	1000 to 10000 nM
CCC(=O)N1CCC(Oc2ccc(-c3ccc4cccnc4c3Cl)cc2F)CC1 [Example 224, 1-{4-[4-(8-Chloroquinolin-7-yl)-2-fluorophenoxy]-piperidin-1-yl}-propan-1-one]	1 to 99 nM
O=C([C@H]1CCCO1)N1CCC(Oc2ccc(-c3cnc4sccc4c3)cc2)CC1 [Example 254, (R)-Tetrahydrofuran-2-yl-[4-(4-thieno[2,3-b]pyridin-5-yl-phenoxy)-piperidin-1-yl]-methanone, TFA salt]	1 to 99 nM
CCC(=O)N1CCC(Oc2ccc(-c3cnc4ccc(OC)cc4c3)cc2)CC1 [Example 53, 1-{4-[4-(6-Methoxyquinolin-3-yl)-phenoxy]-piperidin-1-yl}-propan-1-one]	1000 to 10000 nM
CCC(=O)N1CCC(Oc2ccc(-c3ccc4c(OC)nccc4c3)cc2)CC1 [Example 433]	100 to 999 nM
Cc1ccc2ncccc2c1-c1ccc(OC2CCN(C(=O)C3CCCO3)CC2)cc1 (stereo in doubt) [Example 354, (R)-(4-(4-(6-Methylquinolin-5-yl)phenoxy)piperidin-1-yl)(tetrahydrofuran-2-yl)methanone]	1 to 99 nM
Cc1nccc2c(C)c(-c3ccc(OC4CCN(C(=O)C5CC5)CC4)cc3)ccc12 [Example 473, Cyclopropyl-[4-[4-(1,5-dimethyl-6-isoquinolyl)phenoxy]-1-piperidyl]methanone HCl]	100 to 999 nM
COc1nccc2cc(-c3ccc(OC4CCN(C(=O)C5CCC5)CC4)cc3)ccc12 [Example 434, Cyclobutyl-{4-[4-(1-methoxyisoquinolin-6-yl)-phenoxy]-piperidin-1-yl}-methanone]	100 to 999 nM
CCC(=O)N1CCC(Oc2ccc(-c3ccc4cccnc4c3)cn2)CC1 [Example 135, 1-[4-(5-Quinolin-7-yl-pyridin-2-yloxy)-piperidin-1-yl]-propan-1-one, HCl]	100 to 999 nM
Cc1c(-c2ccc(OC3CCN(C(=O)[C@H]4CCCO4)CC3)cc2)ccc2cnccc12 [Example 468, {4-[4-(5-Methylisoquinolin-6-yl)-phenoxy]-piperidin-1-yl}-(R)-tetrahydro-furan-2-yl-methanone, HCl]	1 to 99 nM
CCOc1c(-c2ccc(OC3CCN(C(=O)CC)CC3)cc2)ccc2cccnc12 [Example 167, 1-{4-[4-(8-Ethoxyquinolin-7-yl)-phenoxy]-piperidin-1-yl}-propan-1-one, HCl]	1 to 99 nM
CCOC(=O)N1CCC(Oc2ccc(-c3ccc4cccnc4c3C)cc2)CC1 [Example 90, Ethyl 4-[4-(8-methyl-7-quinolyl)phenoxy]piperidine-1-carboxylate]	100 to 999 nM
CCC(=O)N1CCC(Oc2ccc(-c3ccc4cccnc4c3)cc2OC)CC1 [Example 199, 1-[4-(2-Methoxy-4-quinolin-7-yl-phenoxy)-piperidin-1-yl]-propan-1-one]	1000 to 10000 nM

Continued, values first:

IC50	Structure (SMILES)
100 to 999 nM	Cc1c(-c2ccc(OC3CCN(C(=O)C4(O)CC4)CC3)cc2)ccc2ncnn12 [Example 312, (1-Hydroxycyclopropyl)-{4-[4-(5-methyl-[1,2,4]triazolo[1,5-a]pyridin-6-yl)-phenoxy]-piperidin-1-yl}-methanone]
100 to 999 nM	CCC(=O)N1CCC(Oc2ccc(-c3ccc4cc(C#N)cnc4c3)cc2)CC1 [Example 277, 7-[4-(1-Propionyl-piperidin-4-yloxy)-phenyl]-quinoline-3-carbonitrile]
1 to 99 nM	CCONC(=O)N1CCC(Oc2ccc(-c3ccc4cccnc4c3C)cc2)CC1 [Example 93, N-ethoxy-4-[4-(8-methyl-7-quinolyl)phenoxy]piperidine-1-carboxamide]
1000 to 10000 nM	CCC(=O)N1CCC(Oc2ccc(-c3ccc4nnc(C(F)(F)F)n4c3)cc2)CC1 [Example 159, 1-{4-[4-(3-Trifluoromethyl-1,2,4-triazolo[4,3-a]pyridin-6-yl)-phenoxy]-piperidin-1-yl}-propan-1-one, HCl]
1000 to 10000 nM	CN(C)c1c(-c2ccc(OC3CCN(C(=O)C4CC4)CC3)cc2)ccc2cccnc12 [Example 333, Cyclopropyl-{4-[4-(8-dimethylamino-quinolin-7-yl)-phenoxy]-piperidin-1-yl}-methanone]
100 to 999 nM	CCC(=O)N1CCC(Oc2ccc(-c3cc(OC)c4ccnn4c3)cc2)CC1 [Example 410, 1-{4-[4-(4-Methoxypyrazolo[1,5-a]pyridin-6-yl)-phenoxy]-piperidin-1-yl}-propan-1-one, HCl]
100 to 999 nM	Cc1ccc2cc(-c3ccc(OC4CCN(C(=O)C5CC5)CC4)cc3)cnc2c1 [Example 64, Cyclopropyl-{4-[4-(7-methylquinolin-3-yl)-phenoxy]-piperidin-1-yl}-methanone]
1 to 99 nM	CCC(=O)N1CCC(Oc2ccc(-c3ccc4cccnc4c3C)cc2)CC1 [Example 36]
1 to 99 nM	O=C([C@H]1CCCO1)N1CCC(Oc2ccc(-c3ccc4cccnc4c3Cl)cc2)CC1 [Example 260, {4-[4-(8-Chloro-quinolin-7-yl)-phenoxy]-piperidin-1-yl}-(R)-tetrahydro-furan-2-yl-methanone, TFA salt]
1000 to 10000 nM	CCC(=O)N1CCC(Oc2ccc(-c3cnc4cccc(OC)c4c3)cc2)CC1 [Example 463, 1-{4-[4-(5-Methoxyquinolin-3-yl)-phenoxy]-piperidin-1-yl}-propan-1-one, HCl]
1 to 99 nM	CC(C)C(=O)N1CCC(Sc2ccc(-c3ccc4cccnc4c3)cc2)CC1 [Example 520, HCl]
1000 to 10000 nM	COc1cc2ncc(-c3ccc(OC4CCN(C(=O)C5CC5)CC4)cc3)cc2cc1F [Example 445, Cyclopropyl-{4-[4-(6-fluoro-7-methoxyquinolin-3-yl)-phenoxy]-piperidin-1-yl}-methanone]
